According to patent publication US9422300B2, “Bisulfate of janus kinase (JAK) inhibitor and preparation method therefor” (Jiangsu Hengrui Medicine Co., Ltd., priority 2013, dated 2016):
Where two headings read alike, the source gives them in different places.

Assays:
[1] = Pharmacokinetic parameters in rhesus monkeys; format: in vivo; settings: for AUC(0-t) / Cmax / MRT / t1/2: plasma, rhesus monkeys, single dose; for AUC(0-t) / Cmax / MRT / individual variation of in vivo exposure / t1/2: 50 mg/kg
Method: The pharmacokinetic parameters of the compound of formula (IV) and its different salt forms were studied in rhesus monkeys, and the properties of the different forms of the compounds were evaluated in detail. Four rhesus monkeys were used as test animals, half male and half female. The rhesus monkeys were administered a single dose of 50 mg/kg. Multi-crossover design was adopted to administer different drugs to test animals, and the convalescence from each cycle was three days. Blood samples (0.5 mL) were taken from the femoral vein before administration (0 h), and at 0.25 h, 0.5 h, 1 h, 2 h, 4 h, 6 h, 8 h and 24 h after administration, stored in heparinized tubes, shaken well, and centrifuged for 10 minutes at 3500 rpm to separate blood plasma. The plasma samples were stored at low temperature, LC-MS/MS was used to measure drug concentration in plasma and liver, and pharmacokinetic parameters were analyzed by WinNonlin 5.3 software.

[2] = test system: rheumatoid arthritis patients; settings: phase III clinical trial, cited from earlier work

Row | Compound | t1/2 [1] [h] | AUC(0-t) [1] [ng·h/mL] | Cmax [1] [ng/mL] | MRT [1] [h] | also measured
1 | COc1nsc(NC(=O)N2C[C@H]3C[C@H](N(C)c4ncnc5[nH]ccc45)C[C@H]3C2)n1 [Bisulfate, (3aR,5s,6aS)—N-(3-methoxyl-1,2,4-thiadiazol-5-yl)-5-(methyl(7H-pyrrolo[2,3-d]pyrimidin-4-yl)amino)hexahydrocyclopenta[c]pyrrole-2(1H)-carboxamide bisulfate] | 5.3 ± 1.6 |  |  |  | AUC(0-t) ([1]; both sexes, rhesus monkey, read-out: AUC(0-t)): 63000 ± 53600 ng·h/mL; Cmax ([1]; both sexes, rhesus monkey, read-out: Cmax): 9940 ± 5320 ng/mL; MRT ([1]; both sexes, rhesus monkey, read-out: MRT): 6.3 ± 1.7 h; increase of in vivo exposure relative to that of the base ([1]; monkeys, 50 mg/kg single dose): 50%; individual variation of in vivo exposure ([1]; monkeys, 50 mg/kg single dose, listed as bisulfate salt): relatively small individual variation
2 | COc1nsc(NC(=O)N2C[C@H]3C[C@H](N(C)c4ncnc5[nH]ccc45)C[C@H]3C2)n1 [Compound of formula (IV), (3aR,5s,6aS)—N-(3-Methoxy-1,2,4-thiadiazol-5-yl)-5-(methyl(7H-pyrrolo[2,3-d]pyrimidin-4-yl)amino)hexahydrocyclopenta[c]pyrrol-2(1H)-carboxamide] | 6.3 ± 3.5 | 41111 ± 59593 | 6176 ± 8838 | 8.8 ± 5.16 | in vivo exposure ([1]; monkeys, 50 mg/kg single dose): 41111 ng/ml*h; individual variation of in vivo exposure ([1]; monkeys, 50 mg/kg single dose): relatively large individual variation
3 | C[C@@H]1CCN(C(=O)CC#N)C[C@@H]1N(C)c1ncnc2[nH]ccc12 [tofacitinib] |  |  |  |  | efficacy compared with methotrexate ([2]; 5 mg/10 mg as a single drug): significantly better than methotrexate; efficacy in reducing the progression of internal structural damage compared with methotrexate ([2]; period of six months): slightly better than methotrexate
4 | Citrate | 6.3 ± 5.5 | 44357 ± 45012 | 5627 ± 4201 | 10.0 ± 7.6 | 
